Assay results from article PMC6544242, “Development and validation of a multiplex UHPLC-MS/MS method for the determination of the investigational antibiotic against multi-resistant tuberculosis macozinone (PBTZ169) and five active metabolites in human plasma” (PLoS ONE, 2019).
Read-outs that look alike come from different tables or passages of the source.

How the values were obtained:
[1] = human, 6 h
[2] = human
[3] = system: Mycobacterium tuberculosis; set-up: method as in PMID 20086151, PMID 22926573, PMID 25987624, PMID 30126954; conditions: preclinical models; cited from earlier work
[4] = for % from t0: processed extract sample, 24h
[5] = 24 h
[6] = system: bacteria (general anti-bacterial activity); set-up: method as in PMID 24500695; conditions: cited from earlier work
[7] = system: Mycobacterium tuberculosis; conditions: in vitro, Mycobacterium tuberculosis; cited from earlier work

## O=c1nc(N2CCN(CC3CCCCC3)CC2)sc2c([N+](=O)[O-])cc(C(F)(F)F)cc12 [PBTZ169, macozinone]
[1]; 0.1 ng/mL
  % from freshly processed samples (n=2): 19%
[1]; 0.2 ng/mL
  % from freshly processed samples (n=2): 11%
[1]; 0.5 ng/mL
  % from freshly processed samples (n=2): -12%
[1]; 1 ng/mL
  % from freshly processed samples (n=2): -4%
[1]; 2 ng/mL
  % from freshly prepared samples: 5%
  % from freshly processed samples (n=2): -3%
[1]; 50 ng/mL
  % from freshly processed samples (n=2): 7%
[1]; 150 ng/mL
  % from freshly prepared samples: -3%
[1]; 500 ng/mL
  % from freshly processed samples (n=2): -4%
[1]; 1000 ng/mL
  % from freshly processed samples (n=2): -10%
[1]; 1500 ng/mL
  % from freshly prepared samples: -7%
[1]; 2000 ng/mL
  % from freshly processed samples (n=2): -1%
[2]; 1 h, 10 ng/mL
  % from t0: 1%
[2]; 1 h, 20 ng/mL
  % from t0: 2%
[2]; 1 h, 50 ng/mL
  % from t0: -1%
[2]; 1 h, 100 ng/mL
  % from t0: 3%
[2]; 1 h, 200 ng/mL
  % from t0: 1%
[2]; 1 h, 500 ng/mL
  % from t0: 0%
[2]; 2 h, 10 ng/mL
  % from t0: 0%
[2]; 2 h, 20 ng/mL
  % from t0: 2%
[2]; 2 h, 50 ng/mL
  % from t0: -3%
[2]; 2 h, 100 ng/mL
  % from t0: -1%
[2]; 2 h, 200 ng/mL
  % from t0: -3%
[2]; 2 h, 500 ng/mL
  % from t0: -4%
[2]; 4 h, 10 ng/mL
  % from t0: -1%
[2]; 4 h, 20 ng/mL
  % from t0: -1%
[2]; 4 h, 50 ng/mL
  % from t0: -7%
[2]; 4 h, 100 ng/mL
  % from t0: 0%
[2]; 4 h, 200 ng/mL
  % from t0: -2%
[2]; 4 h, 500 ng/mL
  % from t0: -3%
[3]
  effect in combination with clofazimine or bedaquiline: synergistic effect
  effect in combination with isoniazide, moxifloxacin, rifampicin: additive effect
[4]; after 24h at RT, medium level
  change in processed samples: -30%
[4]; 4°C, level H (QC 1500 ng/mL)
  % from t0: -15%
[4]; 4°C, level L (QC 2 ng/mL)
  % from t0: 5%
[4]; 4°C, level M (QC 150 ng/mL)
  % from t0: -7%
[4]; RT, level H (QC 1500 ng/mL)
  % from t0: -8%
[4]; RT, level L (QC 2 ng/mL)
  % from t0: -3%
[4]; RT, level M (QC 150 ng/mL)
  % from t0: 2%
[5]
  time stable in citrated human plasma: at least 24 h
[6]
  general anti-bacterial activity: no general anti-bacterial activity
[7]
  minimum inhibitory concentration (MIC): below 0.0005 μg/mL
